The subject of data set [1] is fluid percussion injury mice. Description: Conditioned fear response (CFR) after fluid percussion injury, GTA by oral gavage. It is filed as in vivo, mouse. The conditions noted are these: 5 mg/kg GTA oral gavage for 5 days, CFR on day 7. As to the method: A fluid percussion injury assay was performed. Briefly, a craniotomy was performed on anesthetized mice using a 3 mm trephine and a Luer-Hoc needle hub attached to the skull and capped. The following day, a fluid percussion injury device was employed to deliver a pulse of saline through the hub at a pressure between 1.4-2.14 atm, producing a mild to moderate percussion injury. Sham animals received all anesthesia and surgical procedures except for the fluid pulse.
Mice were allowed to recover for one day. Mice were then treated with 5 mg/kg of glyceryl triacetate (GTA) via oral gavage for 5 days. The conditioned fear response (CFR) assay was performed on day 7.

The conditions of data set [2]: within one hour of administration; cited from earlier work.

With `CC(=O)OCC(COC(C)=O)OC(C)=O` [GTA, glyceryl triacetate], in data set [1], the “conditioned fear response (freezing)” value was “showed a similar fear response to sham animals and a statistically superior (P<0.05) response to those mice receiving the brain injury without treatment”. Also, in data set [2], the “increase of acetate levels in the brain” value is “over 15 fold”.

These data come from patent US20260053765A1, “COMPOSITIONS AND METHODS FOR THE IMPROVEMENT OF MEMORY” (THE CHILDREN'S HOSPITAL OF PHILADELPHIA, priority 2016, published 2026).
